Assay [1] concerns the target integrin αvβ3 (Homo sapiens, UniProt P05106+P06756). The assay is described as follows: integrin αvβ3-mediated cell attachment to ligand. The class given is cell-based. Particulars: mean and SD, at least 3 independent assays, read-out: IC50, inhibition of αvβ3-mediated cell attachment. On the procedure:
(§1) The RGD peptidomimetic CWHM‐12 was synthesized as described in detail previously (Henderson et al., 2013). A close structural analog of this compound with improved oral bioavailability, CWHM‐680, was also synthesized at Saint Louis University. Potency for the compounds in blocking cell attachment mediated by integrins αvβ3, αvβ5, and αvβ6 was measured as previously described (Henderson et al., 2013). Potency for blocking cell attachment mediated by integrins αvβ1, αvβ8, and α8β1 was measured using modifications of this method which are briefly summarized as follows: To assess CWHM‐12 and CWHM‐680 effects on cellular αvβ1 function, we varied its concentration in an assay measuring binding of HEK‐293 cells, which naturally express this integrin (Nagarajan et al., 2007), to the surface of 96‐well plates coated with purified recombinant human TGFβ‐1 latency‐associated peptide (R&D Systems). To assess the effect on cellular αvβ8 function, we performed the assay with the same LAP ligand but with HEK‐293 cells which had been stably transfected to overexpress this integrin. To assess the effect on cellular α8β1 function, we performed the assay using HEK‐293 cells, which had been stably transfected to overexpress this integrin and used purified recombinant mouse nephronectin as the immobilized ligand (R&D Systems). […]

In assay [2] the target is T1, integrin αvβ1 (Homo sapiens, UniProt P05556+P06756).
T1 construct: HEK‐293 cells, which naturally express this integrin; endogenous in cells; host or cells: HEK-293
The assay is described as follows: integrin αvβ1-mediated attachment of HEK-293 cells to TGFβ-1 latency-associated peptide. The class given is cell-based. As to conditions: mean and SD, at least 3 independent assays, LAP ligand. On the procedure:
as §1

For assay [3], the target named is integrin αvβ6 (Homo sapiens, UniProt P06756+P18564). The assay is described as follows: integrin αvβ6-mediated cell attachment to ligand. The class given is cell-based. Particulars: mean and SD, at least 3 independent assays, read-out: IC50, inhibition of αvβ6-mediated cell attachment. On the procedure: as §1
The test system of assay [4] is pro-fibrotic gene expression in kidney. The assay is described as follows: aristolochic acid kidney injury model, kidney qRT-PCR. The format is in vivo, mouse. Particulars: AA-injured, 100 mg/kg/day s.c. minipump, day 27; vehicle 32-fold. On the procedure:
Alzet osmotic minipumps (Cupertino, CA) were implanted subcutaneously in 8‐ to 10‐week‐old wild‐type male ICR outbred mice (Envigo) one day prior to induction of kidney injury to deliver vehicle (DMSO/H2O 1:1) or CWHM‐12 at a dose of 100 mg/kg per day. A single 5 mg/kg dose of aristolochic acid I sodium salt (Sigma‐Aldrich, A9451) in PBS was administered intraperitoneally to induce kidney injury, and mice were monitored daily for 27 days thereafter. Control (uninjured) mice were injected with an equal volume of PBS. Blood was obtained by maxillary vein puncture on days 0, 5 (peak injury), and 28 (study endpoint). For testing CWHM‐680, oral gavage (100 mg/kg per day) was started one day prior to injection of aristolochic acid I sodium salt and continued once daily until the study endpoint. Blood was obtained at days 0, 7, and 23 (study endpoint). […] Serum creatinine was measured by liquid chromatography–mass spectrometry (LC–MS/MS) at the University of Alabama O’Brien Center Bioanalytical Core. CWHM‐12 and CWHM‐680 concentrations were measured in plasma samples by liquid chromatography–tandem mass spectrometry (LC/MS/MS) using compound spiked into control plasma as a standard. All experiments were performed under protocols approved by the Institutional Animal Care and Use Committee at St. Louis University. […]
On the technique in general: In qPCR the cycle at which signal appears reflects the starting amount.

The subject of assay [5] is aristolochic acid-induced kidney injury in ICR mice. The assay is described as follows: aristolochic acid kidney injury model, serum creatinine. The format is in vivo, mouse. Particulars: AA-injured mice, 100 mg/kg/day s.c. minipump; vehicle 0.32. On the procedure: Alzet osmotic minipumps (Cupertino, CA) were implanted subcutaneously in 8‐ to 10‐week‐old wild‐type male ICR outbred mice (Envigo) one day prior to induction of kidney injury to deliver vehicle (DMSO/H2O 1:1) or CWHM‐12 at a dose of 100 mg/kg per day. A single 5 mg/kg dose of aristolochic acid I sodium salt (Sigma‐Aldrich, A9451) in PBS was administered intraperitoneally to induce kidney injury, and mice were monitored daily for 27 days thereafter. Control (uninjured) mice were injected with an equal volume of PBS. Blood was obtained by maxillary vein puncture on days 0, 5 (peak injury), and 28 (study endpoint). For testing CWHM‐680, oral gavage (100 mg/kg per day) was started one day prior to injection of aristolochic acid I sodium salt and continued once daily until the study endpoint. Blood was obtained at days 0, 7, and 23 (study endpoint). […] Serum creatinine was measured by liquid chromatography–mass spectrometry (LC–MS/MS) at the University of Alabama O’Brien Center Bioanalytical Core. CWHM‐12 and CWHM‐680 concentrations were measured in plasma samples by liquid chromatography–tandem mass spectrometry (LC/MS/MS) using compound spiked into control plasma as a standard. All experiments were performed under protocols approved by the Institutional Animal Care and Use Committee at St. Louis University.

Assay [6] has as its system integrin αIIbβ3. The arrangement: method as in Henderson et al., 2013. Particulars: no significant activity; ref Henderson et al., 2013; read-out: activity against integrin αIIbβ3; cited from earlier work.

Where two headings read alike, the source gives them in different places. Where only a bound is given, the exact number is not on record here.

T1 sequence (P06756 31-889 limits assumed): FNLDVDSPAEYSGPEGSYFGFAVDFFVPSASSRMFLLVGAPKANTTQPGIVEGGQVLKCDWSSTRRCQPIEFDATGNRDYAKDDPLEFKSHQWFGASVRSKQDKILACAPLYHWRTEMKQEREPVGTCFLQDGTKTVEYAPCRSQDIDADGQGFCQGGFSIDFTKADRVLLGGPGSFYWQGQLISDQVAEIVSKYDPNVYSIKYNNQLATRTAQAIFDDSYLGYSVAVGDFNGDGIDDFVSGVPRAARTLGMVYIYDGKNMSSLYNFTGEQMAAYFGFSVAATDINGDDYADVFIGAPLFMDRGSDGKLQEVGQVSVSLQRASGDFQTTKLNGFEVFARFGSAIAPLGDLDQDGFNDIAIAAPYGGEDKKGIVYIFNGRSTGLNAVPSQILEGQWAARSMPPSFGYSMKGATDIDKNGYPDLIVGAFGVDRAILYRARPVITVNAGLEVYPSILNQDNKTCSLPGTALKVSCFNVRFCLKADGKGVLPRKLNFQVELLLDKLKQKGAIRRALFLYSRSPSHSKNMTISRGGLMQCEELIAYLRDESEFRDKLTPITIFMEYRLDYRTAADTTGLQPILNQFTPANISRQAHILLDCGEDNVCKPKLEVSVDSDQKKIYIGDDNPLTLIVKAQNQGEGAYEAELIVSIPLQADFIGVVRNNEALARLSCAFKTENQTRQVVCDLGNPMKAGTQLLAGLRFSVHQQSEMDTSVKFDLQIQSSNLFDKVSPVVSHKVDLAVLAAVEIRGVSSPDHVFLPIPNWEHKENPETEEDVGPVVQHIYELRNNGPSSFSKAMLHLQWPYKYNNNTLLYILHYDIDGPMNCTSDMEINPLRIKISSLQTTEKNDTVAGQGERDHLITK
T1 sequence (P06756 891-1048 partner limits assumed): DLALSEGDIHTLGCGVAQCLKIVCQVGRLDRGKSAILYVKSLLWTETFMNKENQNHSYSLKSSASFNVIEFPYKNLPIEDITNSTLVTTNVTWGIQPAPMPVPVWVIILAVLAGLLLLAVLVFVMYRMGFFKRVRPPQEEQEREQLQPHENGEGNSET
T1 sequence (P05556 21-798): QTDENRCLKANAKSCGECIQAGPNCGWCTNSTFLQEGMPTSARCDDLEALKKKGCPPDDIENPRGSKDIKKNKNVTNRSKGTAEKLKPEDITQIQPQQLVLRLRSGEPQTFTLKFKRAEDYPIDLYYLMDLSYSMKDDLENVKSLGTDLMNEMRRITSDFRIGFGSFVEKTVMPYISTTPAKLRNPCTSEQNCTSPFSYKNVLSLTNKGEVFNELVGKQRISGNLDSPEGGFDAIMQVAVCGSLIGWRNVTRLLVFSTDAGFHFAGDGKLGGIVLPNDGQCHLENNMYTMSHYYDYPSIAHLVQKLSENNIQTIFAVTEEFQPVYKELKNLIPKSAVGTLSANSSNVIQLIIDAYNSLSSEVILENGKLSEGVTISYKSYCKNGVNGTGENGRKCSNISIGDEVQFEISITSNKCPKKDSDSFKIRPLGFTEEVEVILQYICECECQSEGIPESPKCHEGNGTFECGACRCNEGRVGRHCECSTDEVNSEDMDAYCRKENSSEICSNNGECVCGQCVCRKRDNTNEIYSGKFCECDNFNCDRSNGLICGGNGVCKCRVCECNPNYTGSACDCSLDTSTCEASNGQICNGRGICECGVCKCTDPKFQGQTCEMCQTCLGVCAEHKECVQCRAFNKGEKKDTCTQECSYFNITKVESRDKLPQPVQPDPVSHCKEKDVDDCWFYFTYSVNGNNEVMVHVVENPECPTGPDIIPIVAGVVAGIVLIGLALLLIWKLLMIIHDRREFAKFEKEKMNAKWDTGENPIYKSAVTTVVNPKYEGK
integrin αvβ6, sequence (P06756 31-889 limits assumed): as the sequence (P06756 31-889 limits assumed) above
integrin αvβ6, sequence (P06756 891-1048 partner limits assumed): as the sequence (P06756 891-1048 partner limits assumed) above
integrin αvβ6, sequence (P18564 22-788): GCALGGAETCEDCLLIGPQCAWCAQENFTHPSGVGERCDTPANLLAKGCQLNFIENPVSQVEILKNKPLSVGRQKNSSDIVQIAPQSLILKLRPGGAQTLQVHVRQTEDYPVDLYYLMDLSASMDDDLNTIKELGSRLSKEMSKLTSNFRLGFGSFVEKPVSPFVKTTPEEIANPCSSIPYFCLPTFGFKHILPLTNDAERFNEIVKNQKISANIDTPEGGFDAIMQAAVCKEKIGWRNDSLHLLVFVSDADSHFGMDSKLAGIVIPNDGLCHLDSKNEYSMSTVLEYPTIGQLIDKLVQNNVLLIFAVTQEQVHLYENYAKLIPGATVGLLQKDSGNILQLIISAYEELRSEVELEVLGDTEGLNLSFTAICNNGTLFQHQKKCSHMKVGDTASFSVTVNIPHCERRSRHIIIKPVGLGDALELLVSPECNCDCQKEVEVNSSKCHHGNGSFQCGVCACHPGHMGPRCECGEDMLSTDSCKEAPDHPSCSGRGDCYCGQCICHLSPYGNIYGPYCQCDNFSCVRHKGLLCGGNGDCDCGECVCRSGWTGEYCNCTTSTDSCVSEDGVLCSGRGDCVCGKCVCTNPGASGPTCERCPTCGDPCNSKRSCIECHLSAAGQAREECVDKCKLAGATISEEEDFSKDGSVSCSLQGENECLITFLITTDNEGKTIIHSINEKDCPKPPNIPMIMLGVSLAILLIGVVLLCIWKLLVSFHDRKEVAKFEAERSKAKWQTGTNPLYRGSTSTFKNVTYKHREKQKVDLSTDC
integrin αvβ3, sequence (P06756 31-889 limits assumed): as the sequence (P06756 31-889 limits assumed) above
integrin αvβ3, sequence (P06756 891-1048 partner limits assumed): as the sequence (P06756 891-1048 partner limits assumed) above
integrin αvβ3, sequence (P05106 27-788): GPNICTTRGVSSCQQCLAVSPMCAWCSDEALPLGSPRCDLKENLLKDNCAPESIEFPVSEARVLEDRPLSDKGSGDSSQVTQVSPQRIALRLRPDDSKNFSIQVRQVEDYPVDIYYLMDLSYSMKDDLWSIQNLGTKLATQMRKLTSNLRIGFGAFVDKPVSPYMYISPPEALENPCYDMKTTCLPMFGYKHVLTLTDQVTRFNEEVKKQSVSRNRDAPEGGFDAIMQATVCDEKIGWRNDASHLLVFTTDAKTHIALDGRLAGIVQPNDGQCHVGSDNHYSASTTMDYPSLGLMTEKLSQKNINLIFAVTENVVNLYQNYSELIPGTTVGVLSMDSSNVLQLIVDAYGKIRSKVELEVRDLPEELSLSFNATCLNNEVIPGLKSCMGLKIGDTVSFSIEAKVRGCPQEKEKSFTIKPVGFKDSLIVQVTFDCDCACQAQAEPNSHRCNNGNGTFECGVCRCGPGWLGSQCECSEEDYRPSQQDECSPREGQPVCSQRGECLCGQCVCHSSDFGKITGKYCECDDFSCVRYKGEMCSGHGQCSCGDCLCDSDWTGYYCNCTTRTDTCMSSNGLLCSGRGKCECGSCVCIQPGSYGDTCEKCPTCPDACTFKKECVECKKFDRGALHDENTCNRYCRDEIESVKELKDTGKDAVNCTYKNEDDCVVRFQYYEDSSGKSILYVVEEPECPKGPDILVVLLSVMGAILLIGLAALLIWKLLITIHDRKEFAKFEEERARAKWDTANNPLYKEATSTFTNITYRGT

On to `CC(C)(C)c1cc(Br)cc([C@H](CC(=O)O)NC(=O)CNC(=O)c2cc(O)cc(NC3=NCC(O)CN3)c2)c1` (stereo partly drawn) [CWHM‐12], for which the IC50 in assay [1] (listed as CWHM−12) was 0.47 ± 0.45 nM; in assay [1] it was less than 1 nM; in assay [2] (listed as CWHM−12, read-out: IC50, inhibition of αvβ1-mediated cell attachment), 0.29 ± 0.14 nM; in assay [2] (read-out: IC50, inhibition of αvβ1-mediated cell attachment), less than 1 nM; in assay [3] (listed as CWHM−12), 0.31 ± 0.14 nM; in assay [3], less than 1 nM. Moreover, the IC50 in assay [6] is more than 5000 nM. In assay [4], the “Col1a1 mRNA expression increase by qRT-PCR compared with uninjured animals” value was 9 fold. For the same molecule, in assay [5], the “serum creatinine at day 27” value turned out to be 0.15 mg/dL.

The values above are taken from article PMC7153038, “Pharmacologic inhibition of RGD‐binding integrins ameliorates fibrosis and improves function following kidney injury” (Physiological Reports, 2020).
